Results as given in patent US8399518B2, “Administration of 3,5-diiodothyropropionic acid for stimulating weight loss, and/or lowering triglyceride levels, and/or treatment of metabolic syndrome” (University of Arizona Office of Technology Transfer, priority 2007, dated 2013).

Assay: Human clinical study with DITPA: weight loss in patients with a history of congestive heart failure
Format: in vivo
Conditions: maximum 26 weeks; for patients who experienced a weight loss of 2% or more: DITPA or placebo (2:1) orally, 90 mg/day increased to 180 or 360 mg/day
Protocol: Fifty-four patients with a history of congestive heart failure were administered DITPA or placebo in a 2:1 randomized and double-blinded manner for a maximum of 26 weeks. […] The patients in the study were administered DITPA orally twice per and the dose began at 90 mg/day and increased to 180 mg/day after two weeks. In half of the DITPA patients, the dose was increased further to 270 mg/day after two weeks, and then to 360 mg/day. Patients were randomized 1:1:1 to DITPA 180 mg/day, DITPA 360 mg/day, or placebo.

O=C(O)CCc1cc(I)c(Oc2ccc(O)cc2)c(I)c1 [DITPA, 3,5-diiodothyropropionic acid]
decrease in weight, overweight patients versus patients of normal body weight (oral DITPA 180 or 360 mg/day): greater decrease in weight in overweight patients than those of normal body weight
patients who experienced a weight loss of 2% or more (patients with body mass index greater than 25): 71.05%
patients who experienced a weight loss of 2% or more (patients with body mass index less than or equal to 25): 37.5%
